Experiments:
Assay type in all cases: cell-based
[1] = tested on: Staphylococcus aureus subsp. aureus (NBRC 13276); experiment: Test for antimicrobial activity, viable cell count (Example 1); conditions: room temperature
Procedure: (§1) After said strains were cultured in SCD agar medium at 35±2° C. for 18 to 24 hours, inocula were prepared by suspending the cultured stains in sterile purified water and adjusting the turbidity so as to correspond with No. 1 MacFarland. Using agar plates, the concentrations of the inocula were measured according to the agar plate mixed dilution method (Table 1). 3 mL of each of the 10%, 1.0% and 0.1% aqueous solutions of the test compound, and of sterile purified water (control) were prepared (n=1). 0.03 mL of said inocula was inoculated into each of the test solutions at room temperature. Immediately after, 15 minutes after, and 180 minutes after the inoculations, 0.5 mL of each of the test solutions was added to 49.5 mL of a sterile phosphate buffer (Pro-media MV2-1000, manufactured by ELMEX), and mixed. A ten fold dilution series of each of the mixtures was constructed. Then, the number of the viable cells therein were measured, and then it was converted to the number of viable cells per 1 mL of the test solutions or control. The number of viable cell was measured according to “Viable cell count; the agar plate mixed dilution method in the Japanese Pharmacopoeia, 14th revised edition”.

[2] = tested on: Escherichia coli (NBRC 3972); experiment: as above; conditions: room temperature
Procedure: as §1

[3] = tested on: Salmonella Enteritidis (NBRC 3313); experiment: as above; conditions: room temperature
Procedure: as §1

[4] = tested on: Staphylococcus aureus subsp. aureus (NBRC 13276); experiment: Test for antimicrobial activity with neutralization, viable cell count (Example 2); conditions: 20% aqueous solution, neutralized
Procedure: (§2) After said strains were cultured in SCD agar medium at 35±2° C. for 18 to 24 hours, inocula were prepared by suspending the stains in sterile purified water and adjusting the turbidity so as to correspond with No. 1 MacFarland. Using agar plate, the concentrations of the inocula were measured according to the agar plate mixed dilution method (Table 3). 3 mL of each of 20% aqueous solution of the test compound, a stock solution of a comparative compound and sterile water, (control) was prepared (n=1). 0.03 mL of said inocula was inoculated into each of the test solutions at a room temperature. Immediately after, 15 minutes after and 180 minutes after the inoculations, neutralization was performed under the following conditions. 0.5 mL of the test solution was added to 4.5 mL of sterile sodium hydrate solution at the concentration of 0.25 mol/L (sodium hydrate; manufactured by Wako Pure Chemical Industries, Ltd.), and mixed. Then, 45 mL of a sterile phosphate buffer (Pro-media MV2-1000, manufactured by ELMEX) was immediately added and mixed. 0.5 mL of the test solution was added to 4.5 mL of sterile sodium hydrate solution at the concentration of 2.0 mol/L, and mixed. Then, 45 mL of a sterile phosphate buffer was immediately added and mixed. A ten-fold dilution series of each of the neutralization solution was prepared. Then, the number of the viable cells therein was measured and it was converted to the number of viable cells per 1 mL of the test solutions or control. The number of viable cell was measured according to “Viable cell count; the agar plate mixed dilution method in the Japanese Pharmacopoeia, 14th revised edition”.

[5] = tested on: Escherichia coli (NBRC 3972); experiment: as above; conditions: 20% aqueous solution, neutralized
Procedure: as §2

[6] = tested on: Salmonella Enteritidis (NBRC 3313); experiment: as above; conditions: 20% aqueous solution, neutralized
Procedure: as §2

With O=C(O)c1cc(C(=O)O)oc(=O)c1 [test compound, 2H-pyran-2-on-4,6-dicarbonic acid] the “number of viable cells, Measured 15 min. after inoculation” value ([1]; 0.1% aqueous solution) was under 100 cfu/mL, the “number of viable cells, Measured 180 min. after inoculation” value ([1]; 0.1% aqueous solution) was under 100 cfu/mL and the “number of viable cells, Measured immediately after inoculation” value ([1]; 0.1% aqueous solution) was 11,000 cfu/mL. The “number of viable cells, Measured 15 min. after inoculation” value ([1]; 1.0% aqueous solution) was under 100 cfu/mL, the “number of viable cells, Measured 180 min. after inoculation” value ([1]; 1.0% aqueous solution) was under 100 cfu/mL and the “number of viable cells, Measured immediately after inoculation” value ([1]; 1.0% aqueous solution) was 5,000 cfu/mL. The “number of viable cells, Measured 15 min. after inoculation” value ([1]; 10% aqueous solution) was under 100 cfu/mL, the “number of viable cells, Measured 180 min. after inoculation” value ([1]; 10% aqueous solution) was under 100 cfu/mL and the “number of viable cells, Measured immediately after inoculation” value ([1]; 10% aqueous solution) was under 100 cfu/mL. For the same compound, the “number of viable cells, Measured 15 min. after inoculation” value ([2]; 0.1% aqueous solution) was under 100 cfu/mL, the “number of viable cells, Measured 180 min. after inoculation” value ([2]; 0.1% aqueous solution) was under 100 cfu/mL and the “number of viable cells, Measured immediately after inoculation” value ([2]; 0.1% aqueous solution) was 10,000 cfu/mL. For the same compound, the “number of viable cells, Measured 15 min. after inoculation” value ([2]; 1.0% aqueous solution) was under 100 cfu/mL, the “number of viable cells, Measured 180 min. after inoculation” value ([2]; 1.0% aqueous solution) was under 100 cfu/mL and the “number of viable cells, Measured immediately after inoculation” value ([2]; 1.0% aqueous solution) was under 100 cfu/mL. For the same compound, the “number of viable cells, Measured 15 min. after inoculation” value ([2]; 10% aqueous solution) was under 100 cfu/mL, the “number of viable cells, Measured 180 min. after inoculation” value ([2]; 10% aqueous solution) was under 100 cfu/mL and the “number of viable cells, Measured immediately after inoculation” value ([2]; 10% aqueous solution) was under 100 cfu/mL. The “number of viable cells, Measured 15 min. after inoculation” value ([3]; 0.1% aqueous solution) was under 100 cfu/mL, the “number of viable cells, Measured 180 min. after inoculation” value ([3]; 0.1% aqueous solution) was under 100 cfu/mL and the “number of viable cells, Measured immediately after inoculation” value ([3]; 0.1% aqueous solution) was 12,000 cfu/mL. For the same compound, the “number of viable cells, Measured 15 min. after inoculation” value ([3]; 1.0% aqueous solution) was under 100 cfu/mL, the “number of viable cells, Measured 180 min. after inoculation” value ([3]; 1.0% aqueous solution) was under 100 cfu/mL and the “number of viable cells, Measured immediately after inoculation” value ([3]; 1.0% aqueous solution) was under 100 cfu/mL. For the same compound, the “number of viable cells, Measured 15 min. after inoculation” value ([3]; 10% aqueous solution) was under 100 cfu/mL, the “number of viable cells, Measured 180 min. after inoculation” value ([3]; 10% aqueous solution) was under 100 cfu/mL and the “number of viable cells, Measured immediately after inoculation” value ([3]; 10% aqueous solution) was under 100 cfu/mL. The “number of viable cells, Measured 15 min. after inoculation” value ([4]; 15 min. after inoculation) was under 100 cfu/mL, the “number of viable cells, Measured 180 min. after inoculation” value ([4]; 180 min. after inoculation) was under 100 cfu/mL and the “number of viable cells, Measured immediately after inoculation” value ([4]; immediately after inoculation) was under 100 cfu/mL. For the same compound, the “number of viable cells, Measured 15 min. after inoculation” value ([5]; 15 min. after inoculation) was under 100 cfu/mL, the “number of viable cells, Measured 180 min. after inoculation” value ([5]; 180 min. after inoculation) was under 100 cfu/mL and the “number of viable cells, Measured immediately after inoculation” value ([5]; immediately after inoculation) was under 100 cfu/mL. The “number of viable cells, Measured 15 min. after inoculation” value ([6]; 15 min. after inoculation) was under 100 cfu/mL, the “number of viable cells, Measured 180 min. after inoculation” value ([6]; 180 min. after inoculation) was under 100 cfu/mL and the “number of viable cells, Measured immediately after inoculation” value ([6]; immediately after inoculation) was under 100 cfu/mL.
